Counter-ions that a name gives are not always drawn. Like-named read-outs stand apart in the source and are kept apart here.

In assay [1] the test system is Zymosan Stimulated Macrophages (arachidonic acid release). Put plainly: Test A: Inhibition of Arachidonic Acid Release from Zymosan Stimulated Macrophages. The format is cell-based, mouse (female MF1 mice). The following applies: Mus musculus, Macrophage, read-out: Test A IC50. The procedure: Test A was carried out in the following way:
Inhibition of Arachidonic Acid Release from Zymosan Stimulated Macrophages
Female MF1 mice (weighing 20 to 25 g) were killed using a rising concentration of CO2. The mice were laid on their backs and the abdomens wiped with 70% alcohol. The skin was pulled back, exposing the peritoneal wall. Medium A (5 ml) (see below) was injected into the peritoneal cavity of each mouse followed by approximately 1 ml of air using a 20 ml syringe and a 21G×40 mm needle in order to form a suspension of macrophage cells. The medium and cells were then removed using a 19G×40 mm needle. The resulting suspension was returned to a sterile beaker kept on ice. The extracts from all the mice were pooled and this pooled cell suspension was counted using a Coulter counter and adjusted to a final cell count of 1-1.3×10^6 cells/ml prior to labelling with [^3 H]-arachidonic acid. Typically five mice provided sufficient cells for each multiwell plate.
Sufficient [^3 H]-arachidonic acid in ethanol to give a final concentration of 1.6 μCi/ml (equivalent to 40 μCi/plate) was blown to dryness under nitrogen. The arachidonic acid was then resuspended in 1 or 2 ml of the cell suspension which was then mixed with the remainder of the cell suspension in a centrifuge bottle. The labelled cell suspension was then plated out into sterile plastic 96 flat-bottomed well plates (250 μl per well) and incubated overnight at 37° C. in a moist atmosphere of 5% CO2, 95% air.
The following day, non-adherent cells were removed by washing 3 times with sterile phosphate buffered saline (PBS). The adherent peritoneal macrophages were then cultured for a further 24 hours in the presence or absence of drugs, in medium B (see below) at 37° in a 5% CO2 atmosphere in order to measure the effects of drugs on the spontaneous release of arachidonic acid in the absence of stimulus. After this incubation, supernatants were removed to give media 1 and stored in sealed multi-well plates at 4° C. prior to scintillation counting. Drugs which potentiated spontaneous release of arachidonic acid (125% of controls) were deemed to be toxic at the concentration at which this phenomenon occurred. The supernatants were replaced by fresh medium C containing fresh drug and a stimulus. Three drugs were tested at six concentrations (100, 50, 20, 10, 5 and 1 μM) in replicates of four on each plate. The other wells contained controls consisting of a positive control (e.g. dexamethasone), medium (B) only and medium C only.
Incubation was then continued for a further 5 hours, whereupon the supernatants were collected to give media 2 and the adherent cells washed with PBS. The cells were then lysed with 100 μl of 0.1% TRITON® X100 in a 0.1% solution of bovine serum albumin in 0.9% saline and mechanically disrupted to give cell lysates. These supernatants (media 2) and cell lysates (Cells) were also stored in sealed multi-well plates at 4° C. prior to scintillation counting. 200 μl aliquots of media, or 100 μl aliquots of cells were counted using 2 ml of OPTIPHASE "HIGH SAFE" (Trademark of LKB) as scintillant.
The percentage of arachidonic acid released was calculated using the mean values for each group of 4 wells in the following equation. [formula]
The value for the arachidonic acid release in the absence of stimulus (spontaneous, cpm of media 2) from cells which had been exposed to neither stimulus nor drug was subtracted from all equivalent values (cpm media 2, stimulated with or without drug) to give the net stimulated release. The percentage inhibition of arachidonic acid release caused by a drug may then be calculated using the following equation. [formula]
Compounds of formula I were tested at six concentrations (100, 50, 20, 10, 5 and 1 μM) and IC50 values calculated. Compounds with IC50 values≤100 μM are considered to be active. Advantageous compounds have an IC50 value<50 μM.
Medium A (for peritoneal lavage) […]

Assay [2] has as its system Carrageenan-induced rat paw oedema. Put plainly: Test B: Carrageenan-induced rat paw oedema test. The format is in vivo. Particulars: 100 mg/kg oral; active = 20% or greater inhibition of paw oedema in at least two out of three tests. As to the method: Test B was carried out in the following way: Carrageenan-induced rat paw oedema test Female rats, weight range 125-150 g were fasted overnight. One of the hind legs of each animal was marked with a line at the connection between the cuboid/navicular and calcaneus/talus bones. Groups of six rats were orally dosed at 10 ml/kg, in random order, with a given dose of the test compound given as a solution or suspension in 10% (w/v) aqueous acacia solution. One hour after dosing, 0.1 ml of 1% (w/v) sterile carrageenan λ in normal saline was injected deeply into the plantar surface of the marked hind foot of each rat. The volume of the foot (up to the marked line) was measured immediately after injection using duplicate water displacement readings. Three hours after injection the foot volume was measured again and the percentage increase in foot volume relative to the initial reading was calculated. The increase in foot volume (i.e. the degree of oedema) in drug treated animals when compared with that in the drug untreated control gave the degree of inhibition of paw oedema by the drug. Compounds were considered to be active in this test if they produced a 20% or greater inhibition of paw oedema in at least two out of three tests after oral dosing at 100 mg/kg. Statistical significance was assessed using the Student's t test for single dose studies and Dunnett's test for multiple dose studies. More advantageous compounds were active in both Tests A and B.

Assay [3] has as its system Carrageenan-induced pleurisy (migrating leukocytes). Put plainly: Carrageenan-induced pleurisy in rats. It counts as in vivo. Particulars: rat, p.o. at time of challenge and 24h and 48h thereafter. The procedure:
The most advantageous compounds of formula I were active in Tests A and B and also in the following test. Carrageenan-induced pleurisy in rats was carried out as described by Ackerman et al. J. Pharmacol. Exp. Therap. 1980, 215, 588-595. Migrating leukocytes were harvested by lavage of the thoracic cavity 72h after injection of 0.3 ml 1% λcarrageenan in sterile isotonic saline. Test compounds were administered p.o. at the time of challenge and 24h and 48 h thereafter.

Setting [4] is: inhibition of arachidonic acid release, zymosan stimulated mouse peritoneal macrophages, tested at 100, 50, 20, 10, 5 and 1 μM, ≤100 μM considered active.

Take `c1ccc(OCCNCCCn2ccnc2)cc1` [Example 3, 3-(Imidazol-1-yl)-N-(2-phenoxyethyl)propylamine]: the 50% inhibitory concentration (IC50) in assay [1] (setting [4]) is 30 µM. Further, the “activity in Test B (inhibition of paw oedema)” value in assay [2] is recorded as “active”.
Take `CC(C)(NCCc1c[nH]cn1)c1ccc(Cl)cc1` [Example 85, 1-(4-chlorophenyl)-2'-(imidazol-4(5)-yl)-1-methyldiethylamine]: the IC50 in assay [1] (setting [4]) was 47 µM. For the same compound, in assay [3], the “activity in carrageenan-induced pleurisy at 10 mg/kg” value (shortened to “activity … at 10 mg/kg”) is reported as “active”.
With `CC(CNCCCn1ccnc1)Oc1ccc(Cl)cc1` (stereo not shown) [Example 15, 2-(4-chlorophenoxy)-3'-(imidazol-1-yl)dipropylamine dihydrochloride], in assay [1] (setting [4]), the IC50 stood at 27 µM. Besides, the “activity in Test B (inhibition of paw oedema)” value in assay [2] is listed as “active”. Further, the “activity … at 10 mg/kg” value in assay [3] is recorded as “active”.
Consider `Cl.Cl.Clc1ccc(OCCNCCCn2ccnc2)cc1` [Example 2, N-[2-(4-chlorophenoxy)ethyl]-3-(imidazol-1-yl)propylamine dihydrochloride], for which the half-inhibitory concentration (IC50) in assay [1] (setting [4]) came out at 26 µM. In addition, the “activity in Test B (inhibition of paw oedema)” value in assay [2] was “active”. Besides, in assay [3], the “activity … at 10 mg/kg” value is given as “active”.
As to `Cl.Cl.Clc1ccc2c(c1)CCC2NCCCn1ccnc1` (stereo not shown) [Example 88, N-(5-chloroindan-1-yl)-3-(imidazol-1-yl)propylamine dihydrochloride], the half-inhibitory concentration (IC50) in assay [1] (setting [4]) came to 28 µM. For the same compound, the “activity in Test B (inhibition of paw oedema)” value in assay [2] was “active”. Besides, in assay [3], the “activity … at 10 mg/kg” value was “active”.
For `CC(C)(NCC(O)Cn1ccnc1)c1ccc(Cl)cc1` (stereo not shown) [Example 43, 1-[1-(4-chlorophenyl)-1-methylethylamino]-3-(imidazol-1-yl)propan-2-ol], the IC50 in assay [1] (setting [4]) was 92 µM. Further, the “activity in carrageenan-induced pleurisy at 3 mg/kg or lower” value in assay [3] is listed as “active”.
For `CN(CCCn1ccnc1)CCOc1ccc(Cl)cc1` [Example 64, N-[2-(4-chlorophenoxy)ethyl]-3-(imidazol-1-yl)-N-methylpropylamine], in assay [1] (setting [4]), the IC50 came out at 32 µM. Also, the “activity in Test B (inhibition of paw oedema)” value in assay [2] is “active”. Moreover, the “activity … at 10 mg/kg” value in assay [3] was “active”.
With `CC(C)(CNCCCn1ccnc1)Oc1ccccc1Cl` [Example 4, 2-(2-Chlorophenoxy)-3'-(imidazol-1-yl)-2-methyldipropylamine], in assay [1] (setting [4]), the half-maximal inhibitory concentration (IC50) was 29 µM. Besides, the “activity in Test B (inhibition of paw oedema)” value in assay [2] is on record as “active”.
On to `CCC(CC)(NCCCn1cnc(CCNC(=O)c2ccccc2)c1)c1ccccc1` [Example 60, N-(2-{1-[3-(1-ethyl-1-phenylpropylamino)propyl]imidazol-4-yl}ethyl)benzamide], for which the IC50 in assay [1] (setting [4]) turned out to be 17 µM. Besides, in assay [3], the “activity in carrageenan-induced pleurisy at 3 mg/kg or lower” value is “active”.
With `CC(C)(CNCCCn1ccnc1)Oc1ccc(Cl)cc1` [Example 1, 2-(4-chlorophenoxy)-3'-(imidazol-1-yl)-2-methyldipropylamine], in assay [1] (setting [4]), the half-maximal inhibitory concentration (IC50) was 20 µM. Further, the “activity … at 10 mg/kg” value in assay [3] is “active”.
For the compound `CC(C)(NCCCn1ccnc1)c1ccc(CCNS(=O)(=O)c2ccccc2)cc1` [Example 56, N-[2-(4-{1-[3-(imidazol-1-yl)propylamino]-1-methylethyl}phenyl)ethyl]-benzenesulphonamide], the IC50 in assay [1] was found to be 8 µM. Besides, the “activity … at 10 mg/kg” value in assay [3] is listed as “active”.
With `CCCCCCNC(=O)Cc1ccc(C(C)(C)NCCCn2ccnc2)cc1` [Example 29, N-Hexyl-4-{1-[3-(imidazol-1-yl)propylamino]-1-methylethyl}phenylacetamide], the 50% inhibitory concentration (IC50) in assay [1] (setting [4]) was determined as 15 µM. The “activity … at 10 mg/kg” value in assay [3] is given as “active”.
For `CC(C)(COCc1ccc(Cl)cc1)NCCCn1ccnc1` [Example 80, N-[2-(4-chlorobenzyloxy)-1,1-dimethylethyl]-3-(imidazol-1-yl)propylamine], the half-inhibitory concentration (IC50) in assay [1] (setting [4]) was 13 µM.
As to `CC(C)(NCCCn1ccnc1)c1ccc(OS(=O)(=O)c2ccccc2)cc1` [Example 71, 4-{1-[3-(imidazol-1-yl)propylamino]-1-methylethyl}phenyl benzenesulphonate], the IC50 in assay [1] (setting [4]) came to 23 µM.
As for `Clc1ccc(SCCNCCCn2ccnc2)cc1` [Example 11, N-[2-(4-Chlorophenylthio)ethyl]-3-(imidazol-1-yl)propylamine], in assay [1] (setting [4]), the 50% inhibitory concentration (IC50) is 37 µM.
As for `Clc1ccc(OCCCNCCCn2ccnc2)cc1` [Example 9, 3-(4-Chlorophenoxy)-3'-(imidazol-1-yl)dipropylamine], the 50% inhibitory concentration (IC50) in assay [1] (setting [4]) came out at 50 µM.
Turning to `Cl.Cl.Fc1ccc(OCCNCCCn2ccnc2)cc1` [Example 7, N-[2-(4-Fluorophenoxy)ethyl]-3-(imidazol-1-yl)propylamine dihydrochloride], the 50% inhibitory concentration (IC50) in assay [1] (setting [4]) came to 39 µM. Besides, the “activity in Test B (inhibition of paw oedema)” value in assay [2] is listed as “active”.
In the case of `CC(C)(NCC(O)Cn1cnc(CCNC(=O)c2ccccc2)c1)c1ccc(Cl)cc1` (stereo not shown) [Example 63, N-[2-(1-{3-[1-(4-chlorophenyl)-1-methylethylamino]-2-hydroxypropyl}imidazol-4-yl)ethyl]benzamide], in assay [1] (setting [4]), the IC50 came out at 14 µM.
For the compound `CC(C)(Cc1ccc(Cl)cc1)NCCCn1ccnc1` [Example 21, N-[2-(4-Chlorophenyl)-1,1-dimethylethyl]-3-(imidazol-1-yl)propylamine dihydrochloride], the IC50 in assay [1] was 8 µM.
Consider `CC(C)(NCCCn1cnc(CCN)c1)c1ccc(Cl)cc1` [Example 22, 3-[4-(2-Aminoethyl)imidazol-1-yl]-N-[1-(4-chlorophenyl)-1-methylethyl]propylamine trihydrochloride], for which the 50% inhibitory concentration (IC50) in assay [1] (setting [4]) was determined as 26 µM.

The record behind these values is US5780642A, “Imidazole derivatives as therapeutic agents” (KNOLL Aktiengesellschaft, priority 1993, dated 1998).
